Assay results published in patent publication US7183075B2, “Purified and isolated potassium-chloride cotransporter nucleic acids and polypeptides and therapeutic and screening methods using same” (Vanderbilt University, priority 2000, dated 2007).
Like-named read-outs stand apart in the source and are kept apart here. Values belong to the molecule of their own block, whether it stands above or below them.

Biological target: T1, mKCC4 (Mus musculus, UniProt Q9WVL3)
T1 construct: a full-length mKCC4 cDNA was used as a standard in the Xenopus expression vector pGEMHE; expressed in transfected cells; host or cells: Xenopus laevis oocytes injected with cRNA (pGEMHE, T7 transcript)
T1 sequence (Q9WVL3 1-1083 L71X/L155X/L467X/L586X/L639X/L1023X): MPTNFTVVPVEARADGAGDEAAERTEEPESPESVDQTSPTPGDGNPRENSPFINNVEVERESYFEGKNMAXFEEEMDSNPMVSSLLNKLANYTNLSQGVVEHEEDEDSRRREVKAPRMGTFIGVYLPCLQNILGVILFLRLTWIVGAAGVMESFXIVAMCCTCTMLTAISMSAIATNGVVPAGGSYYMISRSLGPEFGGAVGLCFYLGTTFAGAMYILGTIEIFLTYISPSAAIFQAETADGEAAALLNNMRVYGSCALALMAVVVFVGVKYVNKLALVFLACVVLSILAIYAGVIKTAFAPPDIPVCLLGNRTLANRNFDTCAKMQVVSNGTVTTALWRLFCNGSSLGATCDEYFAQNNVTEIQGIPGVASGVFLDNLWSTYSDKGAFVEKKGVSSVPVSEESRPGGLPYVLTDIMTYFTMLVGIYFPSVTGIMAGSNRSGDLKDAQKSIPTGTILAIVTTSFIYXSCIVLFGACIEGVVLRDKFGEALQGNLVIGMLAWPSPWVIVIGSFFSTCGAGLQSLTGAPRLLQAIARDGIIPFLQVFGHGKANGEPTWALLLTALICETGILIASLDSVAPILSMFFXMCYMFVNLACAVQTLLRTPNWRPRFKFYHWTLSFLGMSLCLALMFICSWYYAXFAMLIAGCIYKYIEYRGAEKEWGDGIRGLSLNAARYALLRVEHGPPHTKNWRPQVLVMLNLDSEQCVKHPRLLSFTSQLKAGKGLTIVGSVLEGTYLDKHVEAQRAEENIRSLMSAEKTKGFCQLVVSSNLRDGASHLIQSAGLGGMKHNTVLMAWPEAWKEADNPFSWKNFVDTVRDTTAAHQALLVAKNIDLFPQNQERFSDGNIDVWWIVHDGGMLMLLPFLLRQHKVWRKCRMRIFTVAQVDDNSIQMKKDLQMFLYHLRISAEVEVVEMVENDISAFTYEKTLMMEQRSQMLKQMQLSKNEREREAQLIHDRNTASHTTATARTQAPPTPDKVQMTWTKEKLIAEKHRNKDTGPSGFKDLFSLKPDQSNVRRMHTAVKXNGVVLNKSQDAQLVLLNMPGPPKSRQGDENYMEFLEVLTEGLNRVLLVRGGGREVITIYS
Assay: 86Rb+ uptake (K+-Cl- cotransport) in Xenopus oocytes injected with mKCC4 cRNA
Type: cell-based
Conditions: for effect on activation of KCC4 by cell swelling: calyculin A 100 nM, okadaic acid 1 nM, cypermethrin 100 pM; for KCC4 function remaining: 100 μM DIDS; for relative KCC4 activity: 2 mM diuretic
Description: Oocytes were surgically collected from anesthetized female Xenopus adults under 0.17% tricaine and incubated for 1 hour with vigorous shaking in frog Ringer ND96 (96 mM sodium chloride, 2 mM potassium chloride, 1.8 mM calcium chloride, 1.0 mM magnesium chloride, and 5 mM Hepes/Tris, pH 7.4) in the presence of 2 mg/ml collagenase B. Oocytes were then washed four times in ND96, manually defolliculated, and incubated overnight in ND96 at 18° C. On the next day, defolliculated stage V–VI oocytes were injected with 50 nl of water or a solution containing cRNA at a concentration of 0.25–0.5 μg/μl (25 ng/oocyte). Oocytes were incubated at 17–18° C. in ND96 (96 mM sodium chloride, 2 mM potassium chloride, 1.8 mM calcium chloride, 1.0 mM magnesium chloride, and 5 mM Hepes/Tris, pH 7.4), supplemented with 2.5 mM sodium pyruvate and 5 mg/100 ml gentamicin, for 3–4 days. The incubation medium was changed every 24 hours. On the day of the experiment, oocytes were switched to Cl^−-free ND96 (96 mM Na^+ Na^+ isethionate, 2 mM K^+ gluconate, 6 mM Ca^2+ gluconate, 1 mM Mg^2+ gluconate, 5 mM Hepes, 2.5 mM sodium pyruvate, 5 mg/100 ml gentamicin, pH 7.4) for 2 hours prior to the uptake assay.
For functional expression and in vitro translation, a full-length mKCC4 cDNA was used as a standard in the Xenopus expression vector pGEMHE (Liman et al. (1992) Neuron 9:861–871). The resulting construct contains nucleotides 55–3812 of mKCC4 (SEQ ID NO:13). For functional comparison with mKCC4, a full-length rabbit KCC1 cDNA was subcloned into pGEMHE. […] […] Transcription product integrity was confirmed on agarose gels, and concentration was determined by absorbance reading at 260 nm (DU 640 available from Beckman of Fullerton, Calif.).
K^+—Cl^− cotransport was assessed by measuring tracer ^86Rb^+ uptake (NEN® Life Science Products of Boston, Mass.) in experimental groups of at least 15 oocytes. […] All uptake solutions also contained 1.8 mM CaCl2, 1 mM MgCl2, 5 mM Hepes, pH 7.4, and were supplemented with 1 mM ouabain and […] ^86Rb^+. Isotonic conditions were generated by supplementing the same solutions with 3.5 g/100 ml sucrose to reach isosmolar conditions for oocytes (˜210 mOsm/kg). Ouabain was added to prevent ^86Rb^+ uptake via the Na^+—K^+-ATPase. The absence of extracellular Na^+ and the hypotonicity of the uptake medium prevented ^86Rb^+ uptake via the endogenous Na^+—K^+-2Cl^− cotransporter that is present in oocytes (Gamba et al. (1994) J Biol Chem 269:17713–17722).
All uptake assays were performed at 32° C. At the end of the uptake period, oocytes were washed five times in ice-cold uptake solution without isotope to remove extracellular fluid tracer. Oocytes were dissolved in 10% SDS, and tracer activity was determined for each oocyte by β-scintillation counting.
To determine the ion transport kinetics of KCC4 and KCC1, ^86Rb^+ uptake experiments were performed in variable concentrations of K^+ and Cl^−. […]

[1] = KCC4, counterion fixed at 50 mM, hypotonic
[2] = KCC4, counterion fixed at 50 mM, hypotonic, read-out: calculated apparent Km for extracellular ion concentration
[3] = 2 mM extracellular K+, hypotonic
[4] = 50 mM extracellular K+, hypotonic

Molecule: COC[C@@H]([C@H](O)[C@H](O)C(=O)NCC[C@H](C)c1nc(/C=C/C[C@@H]2O[C@]3(C[C@@H](O)[C@@H]2C)O[C@H]([C@H](C[C@H](O)[C@H](C)[C@H](O)[C@H](C)/C=C(C)/C(C)=C/C=C/C(C)=C\C#N)OC)[C@H](OP(=O)(O)O)C3(C)C)co1)N(C)C [calyculin A]
effect on activation of KCC4 by cell swelling (hypotonic): completely prevents the activation

Molecule: [K+] [Potassium]
Hill coefficient (KCC4): 1.08±0.2
calculated apparent Vmax for extracellular ion concentration [1]: 32,370±2,115 pmol×oocyte^−1×hour^−1
Km [2]: 17.5 ± 2.7 mM
Km (KCC4, read-out: Potassium Km): 17.5 mM

Molecule: CC1(C)C(C=C(Cl)Cl)C1C(=O)OC(C#N)c1cccc(Oc2ccccc2)c1 (stereo not drawn) [cypermethrin]
effect on activation of KCC4 by cell swelling (hypotonic): neither okadaic acid, nor cypermethrin prevented this activation

Molecule: Cl [Chloride]
Hill coefficient (KCC4): 1.06±0.3
calculated apparent Vmax for extracellular ion concentration [1]: 41,440±4,174 pmol×oocyte^−1×hour^−1
Km [2]: 16.1 ± 4.2 mM
Km (KCC4, read-out: Chloride Km): 15.3 mM

Molecule: C=C1[C@@H](O)[C@@H]2O[C@]3(CC[C@H](/C=C/[C@@H](C)[C@@H]4CC(C)=C[C@@]5(O[C@H](C[C@@](C)(O)C(=O)O)CC[C@H]5O)O4)O3)CC[C@H]2O[C@@H]1[C@@H](O)C[C@H](C)[C@H]1O[C@@]2(CCCCO2)CC[C@H]1C [okadaic acid]
effect on activation of KCC4 by cell swelling (hypotonic): neither okadaic acid, nor cypermethrin prevented this activation

KCC4 function remaining [3]: 65±10%
KCC4 function remaining [4]: 13±4%
Molecule: O=S(=O)(O)c1cc(N=C=S)ccc1C=Cc1ccc(N=C=S)cc1S(=O)(=O)O [DIDS]

Molecule: [Ba+2].[Cl-].[Cl-] [BaCl2]
KCC4-induced influx, % of uptake in control oocytes (10 mM BaCl2 in hypotonic uptake medium): 58±4.3%

Molecule: CCN1C(=O)C=CC1=O [NEM, N-ethylmaleimide]
reduction of KCC4-induced 86Rb+ uptake (1 mM NEM, hypotonic): 68%
fold activation of KCC4 (1 mM NEM, isotonic): 5 fold
86Rb+ uptake in NEM-treated group (KCC4, 1 mM NEM, isotonic): 1062±70 pmol×oocyte^−1×hour^−1

relative KCC4 activity [3]: 79±3%
relative KCC4 activity [4]: 57±9%
Molecule: NS(=O)(=O)c1cc2c(cc1Cl)NC(C(Cl)Cl)NS2(=O)=O (stereo not drawn) [trichlormethiazide]

Molecule: HgCl2 [Hg—Cl2]
response of KCC4 to mercury (50 μM HgCl2, hypotonic): sensitive

effect on KCC4-induced 86Rb+ uptake (100 μM DIOA, hypotonic): inhibition
Molecule: CCCCC1(C2CCCC2)Cc2cc(OCC(=O)O)c(Cl)c(Cl)c2C1=O (stereo not drawn) [DIOA]

relative KCC4 activity [3]: 90±4%
relative KCC4 activity [4]: 17±4%
IC50 (KCC4, 10 mM extracellular K+, read-out: apparent half-maximal inhibition (K=0.5) of Cl−-dependent 86Rb+ uptake): ~900 µM
Molecule: CCCCNc1cc(C(=O)O)cc(S(N)(=O)=O)c1Oc1ccccc1 [bumetanide]
